Reference: paper PMC8151276, “An Integrated Approach toward NanoBRET Tracers for Analysis of GPCR Ligand Engagement” (Molecules, 2021)

Assays:
Format in all cases: binding
FZD8 = target: T1, FZD8 (Homo sapiens, UniProt Q9H461); test: NanoBRET screen HiBiT-FZD8 in HEK293
T1 construct: purchased Promega (in-house HiBiT-GPCR construct library, NanoBRET)
Method: (§1) Each tracer candidate was screened across the entire library of HiBiT-GPCR constructs using NanoBRET as the detection modality. As depicted in Figure 4A, the specificity of interactions was evaluated through decrease in BRET due to competitive displacement of a bound tracer by excess parental compound. Each tracer was analyzed for binding to each HiBiT-GPCR fusion in the absence and in the presence of competing parental compound. Briefly, HEK293 cells were transfected with HiBiT-GPCR constructs diluted into promoterless DNA to reduce expression and maximize translocation to the cell surface. Each tracer candidate was then screened at concentrations of 1 μM and 0.1 μM across cells expressing these fusions. Cells were treated for 1.5 h with tracer either alone or in the presence of 20 μM competing parental compound (i.e., control). BRET was measured upon addition of purified LgBiT and subsequent complementation with HiBiT genetically fused to a GPCR. The specificity of interactions was assessed through a decrease in BRET signal due to competitive displacement of the bound tracer. To further gauge the robustness of these interactions, the fold response over the control (i.e., BRETtracer/BRETcontrol) was calculated. We chose a 1.5-fold response, which translates to ≥7-fold signal over noise as the minimal threshold required to score an interaction as positive. […]. Below we highlight the screening results obtained for our exemplary fluorescent tracers based on Clozapine, Amitriptyline and AZD1283.
(§2) HiBiT-GPCR DNA constructs were diluted in 10 mM Tris pH 8 to a final concentration of 0.01 μg/μL, arrayed in 96-well plates and stored at −20 °C. For transfection, HEK293 cells were suspended in Opti-MEM (without phenol red) supplemented with 2% fetal bovine serum (Seradigm) and 100 units/mL penicillin–streptomycin (Gibco) at a final concentration of 220,000 cells/mL and dispensed into white 96-well plates at 90 μL/well. Subsequent transfections and screens were carried using an Agilent Bravo Automated Liquid Handling Platform. First, the 96-well HiBiT DNA arrays were diluted 25-fold in Opti-MEM (without serum or phenol red) to a final concentration of 0.0004 μg/μL and 20 μL of the diluted DNAs were transferred into new 96-well plates. Next, promoterless carrier DNA (1 μg/μL) was diluted 25-fold (0.04 μg/μL) and then dispensed into the diluted arrays at 20 μL/well. Following brief mixing, Viafect transfection reagent (Promega) diluted 16-fold into Opti-MEM was dispensed into the plates at 40 μL/well. After mixing by pipetting, plates were incubated for 10 min on the pipetting station deck. The DNA-transfection reagent complexes were then added to plates containing cells. To facilitate the screen, 10 μL of DNA-transfection reagent complexes were added in duplicates to the top 4 and bottom 4 rows, resulting in two identical 48-well arrays per plate. Plates with transfected cells were incubated for 18–20 h at 37 °C/5% CO2. A screen of each tracer across the entire library using two different concentrations requires duplicate plates of transfected cells. Depending on the number of tracers being screened, transfections can be scaled up using the same ratios. The next day, for each tracer, four 20× screening solutions in tracer dilution buffer (Promega) were prepared: two duplicates at final concentration of 20 μM and two duplicates at a final concentration of 2 μM. A competing unmodified compound was added to one of each duplicate at a final concentration of 400 μM. The four resulting solutions were diluted 4-fold in Opti-MEM without serum or phenol red to generate 5× solutions (5 µM and 0.5 µM tracer +/− 100 μM competing compound). To screen the library, a BioTek MultiFlo FX liquid dispenser was used to dispense 22.5 µL of tracer solution to the top 4 rows and 22.5 µL tracer + competing compound solution to the 4 bottom rows. Plates were briefly mixed on an orbital shaker and incubated for 1.5 h at room temperature. […]

PTGER3 = target: T2, PTGER3 (Homo sapiens, UniProt P43115); test: NanoBRET screen HiBiT-PTGER3 in HEK293
T2 construct: purchased Promega (in-house HiBiT-GPCR construct library, NanoBRET)
T2 sequence (P43115 1-390): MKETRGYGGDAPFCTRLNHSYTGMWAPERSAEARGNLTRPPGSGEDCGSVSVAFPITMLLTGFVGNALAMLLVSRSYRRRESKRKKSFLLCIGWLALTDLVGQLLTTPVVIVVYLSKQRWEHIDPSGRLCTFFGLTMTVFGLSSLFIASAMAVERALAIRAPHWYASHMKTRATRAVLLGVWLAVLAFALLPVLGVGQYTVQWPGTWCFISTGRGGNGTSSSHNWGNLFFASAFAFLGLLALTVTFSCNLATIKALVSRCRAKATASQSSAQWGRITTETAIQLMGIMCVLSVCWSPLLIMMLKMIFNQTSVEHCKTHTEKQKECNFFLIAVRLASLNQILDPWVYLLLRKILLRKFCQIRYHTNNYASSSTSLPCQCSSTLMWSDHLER
Method: as §1, §2

FZD6 = target: T3, FZD6 (Homo sapiens, UniProt O60353); test: NanoBRET screen HiBiT-FZD6 in HEK293
T3 construct: purchased Promega (in-house HiBiT-GPCR construct library, NanoBRET)
T3 sequence (O60353 19-706): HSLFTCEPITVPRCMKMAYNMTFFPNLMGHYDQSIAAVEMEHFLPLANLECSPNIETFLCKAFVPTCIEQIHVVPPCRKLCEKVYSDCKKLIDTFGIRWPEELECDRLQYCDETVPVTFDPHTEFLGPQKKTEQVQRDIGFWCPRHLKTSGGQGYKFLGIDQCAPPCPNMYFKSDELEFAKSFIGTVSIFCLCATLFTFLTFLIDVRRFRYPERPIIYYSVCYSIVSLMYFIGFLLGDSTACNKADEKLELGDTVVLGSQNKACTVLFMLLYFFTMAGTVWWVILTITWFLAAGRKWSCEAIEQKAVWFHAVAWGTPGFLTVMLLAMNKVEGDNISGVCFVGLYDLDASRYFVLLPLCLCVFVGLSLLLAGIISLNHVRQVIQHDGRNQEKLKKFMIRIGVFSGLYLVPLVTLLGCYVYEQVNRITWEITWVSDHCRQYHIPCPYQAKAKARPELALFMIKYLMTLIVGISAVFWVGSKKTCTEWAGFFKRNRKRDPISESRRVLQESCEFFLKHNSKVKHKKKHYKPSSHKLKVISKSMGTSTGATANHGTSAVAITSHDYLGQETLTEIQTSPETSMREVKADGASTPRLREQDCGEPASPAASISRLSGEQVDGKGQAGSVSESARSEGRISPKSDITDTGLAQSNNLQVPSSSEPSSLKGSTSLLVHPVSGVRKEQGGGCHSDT
Method: as §1, §2

NMUR2 = target: T4, NMUR2 (Homo sapiens, UniProt Q9GZQ4); test: NanoBRET screen HiBiT-NMUR2 in HEK293
T4 construct: purchased Promega (in-house HiBiT-GPCR construct library, NanoBRET)
Method: as §1, §2

T1 sequence (Q9H461 28-694): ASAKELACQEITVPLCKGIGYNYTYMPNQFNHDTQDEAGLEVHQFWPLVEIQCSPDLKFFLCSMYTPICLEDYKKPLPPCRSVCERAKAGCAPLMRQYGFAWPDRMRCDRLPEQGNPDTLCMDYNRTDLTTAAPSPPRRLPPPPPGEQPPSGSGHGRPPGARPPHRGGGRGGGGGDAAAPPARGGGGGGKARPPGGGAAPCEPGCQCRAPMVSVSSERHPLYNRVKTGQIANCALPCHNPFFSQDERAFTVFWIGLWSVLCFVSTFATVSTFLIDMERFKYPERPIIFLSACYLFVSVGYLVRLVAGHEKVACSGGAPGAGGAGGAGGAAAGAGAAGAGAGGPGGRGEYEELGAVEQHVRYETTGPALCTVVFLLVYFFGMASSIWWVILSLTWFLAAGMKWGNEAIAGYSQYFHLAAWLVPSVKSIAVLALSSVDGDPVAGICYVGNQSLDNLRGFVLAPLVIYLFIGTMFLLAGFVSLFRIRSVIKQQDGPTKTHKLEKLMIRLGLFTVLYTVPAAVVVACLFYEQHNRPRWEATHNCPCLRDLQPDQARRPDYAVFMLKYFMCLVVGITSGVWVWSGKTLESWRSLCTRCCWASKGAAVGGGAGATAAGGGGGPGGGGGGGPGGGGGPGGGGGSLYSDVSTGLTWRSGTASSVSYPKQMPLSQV
T4 sequence (Q9GZQ4 whole entry): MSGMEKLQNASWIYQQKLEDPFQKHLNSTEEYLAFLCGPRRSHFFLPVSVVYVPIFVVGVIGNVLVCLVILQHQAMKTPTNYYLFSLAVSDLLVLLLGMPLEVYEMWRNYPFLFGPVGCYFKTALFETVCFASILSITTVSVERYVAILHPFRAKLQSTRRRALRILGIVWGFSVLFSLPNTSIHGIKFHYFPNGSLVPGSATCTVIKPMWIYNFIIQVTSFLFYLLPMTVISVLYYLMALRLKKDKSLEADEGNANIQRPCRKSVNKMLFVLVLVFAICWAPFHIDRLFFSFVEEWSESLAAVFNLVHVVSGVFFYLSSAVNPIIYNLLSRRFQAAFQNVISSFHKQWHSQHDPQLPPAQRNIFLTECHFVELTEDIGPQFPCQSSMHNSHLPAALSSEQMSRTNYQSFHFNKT

Row | Structure (SMILES) | NanoBRET Fold Response (FZD8; FZD8, tracer 0.1μM) | NanoBRET Fold Response (FZD8; FZD8, tracer 1μM) | NanoBRET Fold Response (PTGER3; PTGER3, tracer 0.1μM) | NanoBRET Fold Response (PTGER3; PTGER3, tracer 1μM) | NanoBRET Fold Response (FZD6; FZD6, tracer 0.1μM) | NanoBRET Fold Response (FZD6; FZD6, tracer 1μM) | NanoBRET Fold Response (NMUR2; NMUR2, tracer 0.1μM) | NanoBRET Fold Response (NMUR2; NMUR2, tracer 1μM) | other results
1 | O=C(CCc1ccc2n1[B-](F)(F)[N+]1=C(c3ccc[nH]3)C=CC1=C2)NCc1ccc(C(=O)NCCOCCC(=O)N[C@@H]2CC[C@@]3(O)[C@H]4Cc5ccc(O)c6c5[C@@]3(CCN4CC3CC3)[C@H]2O6)cc1 [Naltrexone-3-NB590] | 0.90 | 0.78 | 0.94 | 0.79 | 0.94 | 1.10 | 0.78 | 0.84 | –
2 | CCCn1c(=O)c2[nH]c(-c3ccc(OCC(=O)NCCNC(=O)CCOCCNC(=O)c4ccc(CNC(=O)CCc5ccc6n5[B-](F)(F)[N+]5=C(c7ccc[nH]7)C=CC5=C6)cc4)cc3)nc2n(CCC)c1=O [XAC-3-NB590] | 0.95 | 1.02 | 0.97 | 1.05 | 0.95 | 1.05 | 1.11 | 0.89 | –
3 | CC(C)N(CC[C@H](c1ccccc1)c1cc(CCNC(=O)c2ccc(CNC(=O)CCc3ccc4n3[B-](F)(F)[N+]3=C(c5ccc[nH]5)C=CC3=C4)cc2)ccc1O)C(C)C [Tolterodine-BZ-NB590] | 1.00 | 1.02 | 0.99 | 1.07 | 0.97 | 1.04 | 1.00 | 1.06 | –
4 | COc1ccc2[nH]c(-c3ccc(CNC(=O)CCOCCOCCOCCOCCNC(=O)CCc4ccc5n4[B-](F)(F)[N+]4=C(c6ccc[nH]6)C=CC4=C5)cc3)c(CCNC(C)=O)c2n1 [AzomelatoninICO9-2-NB590] | – | – | – | – | – | – | – | – | NanoBRET Fold Response (FZD8; 0.1μM tracer): 0.91; NanoBRET Fold Response (FZD8; 1μM tracer): 1.03; NanoBRET Fold Response (PTGER3; 0.1μM tracer): 1.04; NanoBRET Fold Response (PTGER3; 1μM tracer): 1.20; NanoBRET Fold Response (FZD6; 0.1μM tracer): 1.12; NanoBRET Fold Response (FZD6; 1μM tracer): 0.94; NanoBRET Fold Response (NMUR2; 0.1μM tracer): 0.71; NanoBRET Fold Response (NMUR2; 1μM tracer): 0.99
5 | CN1CCN(C2=Nc3cc(Cl)ccc3N(CC(=O)NCCOCCOCCOCCOCCNC(=O)CCc3ccc4n3[B-](F)(F)[N+]3=C(c5ccc[nH]5)C=CC3=C4)c3ccccc32)CC1 [Clozapine-c-2-NB590] | – | – | – | – | – | – | – | – | NanoBRET Fold Response (FZD8; FZD8, 0.1μM tracer): 0.97; NanoBRET Fold Response (FZD8; FZD8, 1μM tracer): 1.04; NanoBRET Fold Response (PTGER3; PTGER3, 0.1μM tracer): 1.00; NanoBRET Fold Response (PTGER3; PTGER3, 1μM tracer): 1.11; NanoBRET Fold Response (FZD6; FZD6, 0.1μM tracer): 1.01; NanoBRET Fold Response (FZD6; FZD6, 1μM tracer): 1.04; NanoBRET Fold Response (NMUR2; NMUR2, 0.1μM tracer): 1.12; NanoBRET Fold Response (NMUR2; NMUR2, 1μM tracer): 0.92
6 | COc1ccccc1N1CCN(CCCCN2C(=O)c3ccc(CNC(=O)CCOCCNC(=O)c4ccc(CNC(=O)CCc5ccc6n5[B-](F)(F)[N+]5=C(c7ccc[nH]7)C=CC5=C6)cc4)cc3C2=O)CC1 [NAN-190-3-NB590] | 1.20 | 0.87 | 0.99 | 0.64 | 0.95 | 1.13 | 1.04 | 0.75 | –
7 | Cc1nc2n(c(=O)c1CCN1CCC(c3noc4cc(F)ccc34)CC1)CCCC2OC(=O)NCCOCCOCCOCCOCCNC(=O)CCc1ccc2n1[B-](F)(F)[N+]1=C(c3ccc[nH]3)C=CC1=C2 (centres unmarked) [Risperidone-2-NB590] | 1.02 | 1.12 | 0.94 | 1.12 | 1.01 | 1.10 | 1.09 | 1.05 | –
8 | O=C(CCOCCOCCOCCOCCNC(=O)CCc1ccc2n1[B-](F)(F)[N+]1=C(c3ccc[nH]3)C=CC1=C2)NCCCN1CCN(C2=Nc3ccccc3Oc3ccc(Cl)cc32)CC1 [Loxapine-a-2-NB590] | 0.95 | 1.01 | 0.98 | 0.98 | 1.09 | 1.06 | 1.07 | 0.74 | –
9 | COc1ccccc1N1CCN(CCCCN2C(=O)c3ccc(CNC(=O)CCOCCOCCOCCOCCNC(=O)CCc4ccc5n4[B-](F)(F)[N+]4=C(c6ccc[nH]6)C=CC4=C5)cc3C2=O)CC1 [NAN-190-2-NB590] | 0.95 | 1.03 | 1.00 | 1.02 | 0.95 | 1.04 | – | – | –
10 | CC(C)N(CC[C@H](c1ccccc1)c1cc(CCNC(=O)CCOCCOCCOCCOCCNC(=O)CCc2ccc3n2[B-](F)(F)[N+]2=C(c4ccc[nH]4)C=CC2=C3)ccc1O)C(C)C [Tolterodine-2-NB590] | 1.07 | 1.12 | 1.14 | 0.99 | 0.83 | 0.88 | 1.31 | 1.07 | –
11 | CN(C)CCC=C1c2ccccc2CCc2ccc(C(=O)NCCNC(=O)CCOCCOCCOCCOCCNC(=O)CCc3ccc4n3[B-](F)(F)[N+]3=C(c5ccc[nH]5)C=CC3=C4)cc21 [Amitriptyline-a-2-NB590] | – | – | – | – | – | – | – | – | NanoBRET Fold Response (FZD6; tracer at 0.1μM): 1.10; NanoBRET Fold Response (FZD6; tracer at 1μM): 1.03; NanoBRET Fold Response (NMUR2; tracer at 0.1μM): 1.00; NanoBRET Fold Response (NMUR2; tracer at 1μM): 1.02
12 | CN(CCC=C1c2ccccc2CCc2ccccc21)C(=O)CCOCCOCCOCCOCCNC(=O)CCc1ccc2n1[B-](F)(F)[N+]1=C(c3ccc[nH]3)C=CC1=C2 [Amitriptyline-e-2-NB590] | – | – | – | – | – | – | – | – | NanoBRET Fold Response (FZD6; tracer at 1μM): 1.09
